Assays:
[1] = test system: MDA-MB 435S (breast cancer cell line); assay: Cytotoxicity to tumor cells (WST-1), MDA-MB 435S; type: cell-based; settings: 48-hr treatment
Procedure: (§1) To verify whether the compounds of this invention could be used as anticancer agents, their cytotoxicity against tumor cells were examined. NCI-H460 (lung cancer cell line, ATCC, USA) and MDA-MB 435S (breast cancer cell line, ATCC, USA) were used. The cancer cell lines were plated in 100 μl of DMEM (Dulbelcco's Modified Eagle Medium) containing 10% FBS (fetal bovine serum) in 96-well plates at 5×10^3 cells/well and cultured for 24 hr at 37° C. under 10% CO2 atmosphere. After change of medium with 100 μl of DMEM containing 5% FBS, cells were treated with the indicated concentration of the compounds in DMSO. The final concentration of DMSO in medium was adjusted to 1%. Following 48-hr treatment, medium was changed with a fresh 5% FBS DMEM and 10 μl/well of premix WST-1 (Takara, Japan) was added for analyzing cell proliferation, followed by 2-hr incubation. Using a ELISA microplate reader, the OD (optical density) values at 450 nm were measured. Compared with no-treatment control, the compounds of this invention were evaluated in terms of their cytotoxicity to cancer cell lines.

[2] = test system: Human vascular smooth muscle cells (SMC); assay: Inhibition of vascular smooth muscle cell proliferation (PDGF-stimulated, WST-1); type: cell-based; settings: 5 ng/ml PDGF, 48-hr treatment
Procedure: Human vascular smooth muscle cells (SMC, Bio-whittaker, USA) were plated in 100 μl of DMEM (Dulbelcco's Modified Eagle Medium) containing 10% FBS (fetal bovine serum) in 96-well plates at 5×10^3 cells/well and cultured for 24 hr at 37° C. under 10% CO2 atmosphere. Afterwards, cells were starved in 100 μl of DMEM containing 0.2% FBS for 72 hr. Then, cells were incubated in 100 μl of DMEM containing 5% FBS supplemented with 5 ng/ml PDGF (platelet derived growth factor, ProSpec, Israel) and then treated with indicated concentrations of chemicals in DMSO synthesized in Examples. The final concentration of DMSO was adjusted to 1%. After 48-hr treatment, medium was changed with a fresh 5% FBS DMEM and 10 μl/well of premix WST-1 (Takara, Japan) was added for analyzing cell proliferation, followed by 2-hr incubation. Using a ELISA microplate reader, the OD (optical density) values at 450 nm were measured. Compared with no-treatment control, the compounds of this invention were evaluated in terms of their cell proliferation activity.

[3] = test system: NCI-H460 (lung cancer cell line); assay: Cytotoxicity to tumor cells (WST-1), NCI-H460; type: cell-based
Procedure: as §1

cancer cell lines = assay: Cytotoxicity to tumor cells (WST-1), cancer cell lines collectively; type: cell-based; settings: cancer cell lines (NCI-H460, MDA-MB 435S) not distinguished in the sentence; read-out: IC50 against cancer cell lines
Procedure: as §1

[4] = test system: neointima thickening of balloon-injured left common carotid artery; assay: Inhibition of restenosis using balloon injury of carotid artery; settings: Sprague-Dawley rats, intraperitoneal, 2 weeks after balloon injury
Procedure: To examine restenosis inhibition effects of the present compounds, rat restenosis models were constructed using balloon injury of carotid artery.
Sprague-Dawley male rats with body weights of 350±30 g (12-14 week age, DaehanBiolink, Inc., Korea) were adapted to surrounding environments for one week. For each experiment, 7-10 rats were used. Rats were anesthetized by intraperitoneal administration of a mixture of ketamine (70 mg/kg) and xylazine hydrochloride (33 mg/kg) and their (left common carotid artery, CCA) and branches of internal carotid artery (ICA) and external carotid artery (ECA) were exposed by neck central compartment dissection. The proximal portion of the left common carotid artery and distal portion of the internal carotid artery were temporarily ligated with suture to block bloodstream, the distal portion of the external carotid artery was ligated. The wall of the external carotid artery between both sutures was partially dissected. 2F Fogarty balloon (Edwards Lifesciences) was inserted and the ligation of the left common carotid artery was then unraveled, followed by advancing the balloon along the direction of the ascending aorta. The balloon was inflated and pulled out at the extent that resistance was allowed at the terminal portion of the common carotid artery of the aortic arch, such that the lesion of the left common carotid artery was induced. […]

[5] = Homo sapiens, NCI-H460, 48-hr treatment

## CCC(=O)c1c(Nc2cccc(Cl)c2Cl)[nH]c2c(Cl)ccc([N+](=O)[O-])c2c1=O [BD033]
[1]
  IC50: 4000 nM
[2]
  IC50: 137 nM
[3]; 48-hr treatment
  IC50: 3200 nM

## CC(=O)c1c(Nc2ccc(Br)cc2)[nH]c2cc(Br)cc(Br)c2c1=O [BD001]
[1]
  IC50: 1800 nM
[2]
  IC50: 210 nM
[3]; 48-hr treatment
  IC50: 1500 nM

## O=C(Nc1ccc(Cl)cc1Cl)c1c(Nc2ccccc2)[nH]c2c(Cl)cc(Cl)cc2c1=O [BD030, 6,8-dichloro-4-oxo-2-phenylamino-1,4-dihydro-quinoline-3-carboxylic acid (2,4-dichloro-phenyl)-amide]
[1]; Homo sapiens, MDA-MB-435S
  IC50: 300 nM
Cancer cell lines
  IC50: < 1000 nM
[4]; histology (FIG. 1c vs FIG. 1a)
  neointima thickening compared with the non-balloon-injured right common carotid artery: slightly increased neointima thickening
[4]; dispersed in polyoxyethylated castor oil, histology (FIG. 1c vs FIG. 1b)
  reduced neointima thickening compared with the balloon-injured left common carotid artery: about 80%
[3]; [5]
  IC50: 1000 nM

## CC(=O)c1c(Nc2ccc(F)cc2Cl)[nH]c2c(Cl)ccc(C)c2c1=O [BD005]
[1]
  IC50: 25000 nM
[2]
  IC50: 280 nM
[3]; 48-hr treatment
  IC50: 600 nM

## CC(=O)c1c(Nc2ccc(C)cc2)[nH]c2c([N+](=O)[O-])cccc2c1=O [BD006]
[1]
  IC50: 1100 nM
[2]
  IC50: 800 nM
[3]; 48-hr treatment
  IC50: 1500 nM

## CC(=O)c1c(Nc2ccc(Br)cc2Cl)[nH]c2c([N+](=O)[O-])cc(Cl)cc2c1=O [BD002]
[1]
  IC50: 300 nM
[3]; 48-hr treatment
  IC50: 400 nM

## CC(=O)c1c(Nc2cccc(F)c2)[nH]c2c(Cl)ccc(F)c2c1=O [BD009]
[1]
  IC50: 5200 nM
[2]
  IC50: 625 nM
[3]; 48-hr treatment
  IC50: 2600 nM

## CC(=O)c1c(Nc2ccc(Cl)cc2Cl)[nH]c2c(Cl)ccc([N+](=O)[O-])c2c1=O [BD010]
[1]
  IC50: 12000 nM
[2]
  IC50: 6500 nM
[3]; 48-hr treatment
  IC50: 25000 nM

## CC(=O)c1c(Nc2ccc(F)c(F)c2F)[nH]c2c(F)cc(F)cc2c1=O [BD004]
[1]
  IC50: 900 nM
[3]; 48-hr treatment
  IC50: 850 nM

## CCC(=O)c1c(Nc2ccc(F)c(F)c2)[nH]c2c(Cl)ccc([N+](=O)[O-])c2c1=O [BD034]
[1]
  IC50: 1600 nM
[2]
  IC50: 127 nM
[3]; 48-hr treatment
  IC50: 3900 nM

## O=C(Nc1ccc(Cl)cc1Cl)c1c(Nc2ccc(Cl)cc2Cl)[nH]c2c(Cl)cc(Cl)cc2c1=O [BD031, 6,8-dichloro-2-(2,4-dichloro-phenylamino)-4-oxo-1,4-dihydro-quinoline-3-carboxylic acid (2,4-dichloro-phenyl)-amide]
[1]; Homo sapiens, MDA-MB-435S
  IC50: < 160 nM
Cancer cell lines
  IC50: < 1000 nM
[3]; [5]
  IC50: 210 nM

## CC(=O)c1c(Nc2cccc(Cl)c2)[nH]c2c(C)cccc2c1=O [BD008]
[1]
  IC50: 6400 nM
[2]
  IC50: 1640 nM
[3]; 48-hr treatment
  IC50: 7200 nM

## CC(=O)c1c(Nc2ccc(F)cc2)[nH]c2c(F)cc(F)cc2c1=O [BD007]
[1]
  IC50: 1100 nM
[2]
  IC50: 290 nM
[3]; 48-hr treatment
  IC50: 1600 nM

## CCC(=O)c1c(Nc2ccc(Cl)cc2F)[nH]c2c(Cl)ccc([N+](=O)[O-])c2c1=O [BD032]
[1]
  IC50: 3500 nM
[2]
  IC50: 140 nM
[3]; 48-hr treatment
  IC50: 3300 nM

## CC(=O)c1c(Nc2ccc(F)c(F)c2F)[nH]c2c(Cl)ccc(C)c2c1=O [BD003]
[1]
  IC50: 600 nM
[3]; 48-hr treatment
  IC50: 400 nM

Reference: US8106071B2, “Compositions for treating hyperproliferative vascular disorders and cancers” (Biobud Co., Ltd., priority 2007, dated 2012)
